According to patent publication US10947574B2, “Method for producing fermented carotenoid using carotenoid-producing bacteria obtained by using cobalt-containing culturing medium” (ENEOS CORPORATION, priority 2015, dated 2021):

System: Paracoccus carotinifaciens mutant strain CF-358
Experiment: Example 5: 5 L fermenter culture with cobalt chloride, growth (OD610) and carotenoid levels (HPLC)
Type: cell-based
Method: In the following examples, carotenoids were quantified by high performance liquid chromatography (HPLC) as follows.
Two columns of Inertsil SIL-100A, 5 μm (ϕ4.6 mm×250 mm) (GL Sciences Inc., Japan) were connected together for use as a column. For elution, a mixed solution of n-hexane, tetrahydrofuran and methanol (40:20:1) serving as a mobile phase was passed through the column at a flow rate of 1.0 mL per minute at a constant temperature around room temperature. For measurement, samples were each dissolved in tetrahydrofuran and diluted 100-fold with the mobile phase, and 20 μL aliquots of the resulting dilutions were injected into the column. The column eluates were detected at a wavelength of 470 nm. As a standard for quantification, astaxanthin (SIGMA, Cat. No. A9335) was used. The astaxanthin concentration of the standard solution was determined using the following equation after measuring the absorbance (A) of the standard solution at 477 nm and the area percentage % (B) of the astaxanthin peak in HPLC analysis under the above conditions. […]
The ingredients used to prepare the seed flask medium were obtained from lots where microbial cells had been confirmed to grow well.
The resulting culture solution was then inoculated in 80 ml volumes into the individual fermenters, followed by aeration spinner culture at 28° C. under a gauge pressure of 0.01 MPa at an aeration volume of 1.5 vvm for 5 days. To maintain a pH of 7.2 during culture, 15% aqueous ammonia was automatically supplied. The number of spinner rotations was automatically varied such that the dissolved oxygen concentration in each culture solution was maintained at 2 to 4 ppm. An alcohol-based defoaming agent was automatically added to avoid bubbling.
At the completion of culture, the culture solutions were each measured for microbial cell growth by OD610 and measured for carotenoid levels by HPLC (Table 10).

[1] = cobalt added 0.042 μmol/L, total 0.045 μmol/L
[2] = cobalt added 0.42 μmol/L, total 0.42 μmol/L
[3] = cobalt added 4.2 μmol/L, total 4.2 μmol/L
[4] = cobalt added 21 μmol/L, total 21 μmol/L

In the case of `O.O.O.O.O.O.[Cl-].[Cl-].[Co+2]` [Cobalt chloride hexahydrate], the “Carotenoid: 3-Hydroxyechinenone” value [1] is reported as 12 mg/L, the “Carotenoid: Adonirubin” value [1] is reported as 273 mg/L and the “Carotenoid: Adonixanthin” value [1] is reported as 45 mg/L. For the same compound, the “Carotenoid: Astaxanthin” value [1] was 775 mg/L, the “Carotenoid: Asteroidenone” value [1] was 11 mg/L and the “Carotenoid: Canthaxanthin” value [1] was 90 mg/L. The “Carotenoid: Echinenone” value [1] was 37 mg/L, the “Carotenoid: β-Carotene” value [1] was 58 mg/L and the OD610 [1] was 194. The Total carotenoid [1] was 1302 mg/L, the “Total carotenoid/dry microbial cells” value [1] was 41.9 mg/g and the “Carotenoid: 3-Hydroxyechinenone” value [2] was 12 mg/L. The “Carotenoid: Adonirubin” value [2] was 216 mg/L, the “Carotenoid: Adonixanthin” value [2] was 73 mg/L and the “Carotenoid: Astaxanthin” value [2] was 815 mg/L. For the same compound, the “Carotenoid: Asteroidenone” value [2] was 15 mg/L, the “Carotenoid: Canthaxanthin” value [2] was 74 mg/L and the “Carotenoid: Echinenone” value [2] was 37 mg/L. For the same compound, the “Carotenoid: β-Carotene” value [2] was 60 mg/L, the OD610 [2] was 208 and the Total carotenoid [2] was 1303 mg/L. For the same compound, the “Total carotenoid/dry microbial cells” value [2] was 39.1 mg/g, the “Carotenoid: 3-Hydroxyechinenone” value [3] was 5 mg/L and the “Carotenoid: Adonirubin” value [3] was 285 mg/L. The “Carotenoid: Adonixanthin” value [3] was 18 mg/L, the “Carotenoid: Astaxanthin” value [3] was 580 mg/L and the “Carotenoid: Asteroidenone” value [3] was 3 mg/L. For the same compound, the “Carotenoid: Canthaxanthin” value [3] was 338 mg/L, the “Carotenoid: Echinenone” value [3] was 61 mg/L and the “Carotenoid: β-Carotene” value [3] was 29 mg/L. For the same compound, the OD610 [3] was 191, the Total carotenoid [3] was 1319 mg/L and the “Total carotenoid/dry microbial cells” value [3] was 43.2 mg/g. The “Carotenoid: 3-Hydroxyechinenone” value [4] was 4 mg/L, the “Carotenoid: Adonirubin” value [4] was 347 mg/L and the “Carotenoid: Adonixanthin” value [4] was 7 mg/L. The “Carotenoid: Astaxanthin” value [4] was 103 mg/L, the “Carotenoid: Asteroidenone” value [4] was 1 mg/L and the “Carotenoid: Canthaxanthin” value [4] was 431 mg/L. For the same compound, the “Carotenoid: Echinenone” value [4] was 103 mg/L, the “Carotenoid: β-Carotene” value [4] was 27 mg/L and the OD610 [4] was 143. For the same compound, the Total carotenoid [4] was 1023 mg/L, the “Total carotenoid/dry microbial cells” value [4] was 44.9 mg/g and the “total carotenoid production level, in words” value (final concentration of 0.042 to 21 μmol/L) was “high”.
